A short description of series [1]: Solubility of norketotifen (saturated solutions, HPLC). Type of series: physicochemical. As to conditions: for solubility: thermodynamic from solid. On the procedure:
Saturated solutions of norketotifen were prepared at room temperature by stirring, overnight sonication and filtering of the saturated supernatant solutions. An HPLC method for the determination of concentrations of norketotifen was developed:
The HPLC system was a HP 1050 with a variable wavelength detector. […] The relative standard deviation was approximately 0.3 percent for the main peak area.

Series [2] relates to human granulocytes (buffy coat). In words: Inhibition of histamine release from granulocytes (A23187-induced granulocyte activation). In kind it is cell-based. As to conditions: for IC50: 20 min, A23187 (5 μM), 20 min/37° C. The method, then: In the present studies, effects on granulocyte activation was studied as inhibition of histamine release from human granulocytes (buffy coat) by norketotifen. The method is a modification of the method described by Nolte, H. et al., 1988. Granulocytes were obtained from human volunteers and mediator release was induced by incubation (20 min/37° C.) with the calcium ionophore A23187 (5 μM) in the presence or absence of a test article. Histamine was selected as an indicator for mediator release because of the ease with which histamine can be analyzed, using commercially available kits. The test articles were evaluated, in duplicate, at five concentrations and IC50-values were calculated.
The calcium ionophore A23187 was used to increase intracellular calcium concentration of the granulocytes.

The nature of series [3]: Stability of norketotifen formulations. To be noted: pH 6.5; accelerated testing (55° C.). In kind it is physicochemical. The method, then: Stability of norketotifen formulations was studied after incubation at various temperatures, acidity and time intervals. The concentrations of norketotifen were measured after incubation periods of various lengths.
The target in another series is T1, H-1 (Rattus norvegicus, UniProt P31390).
T1 construct: two intradermal injections of histamine; from tissue; host or cells: dorsal skin of live male rats (in vivo)
In words: Antihistaminic (H-1) activity in vivo after oral administration (histamine wheal). On the set-up: species or system rats. As to conditions: for Histamine (wheal area): 60 min before intradermal histamine; for Saline (wheal area): intradermal histamine vehicle. On the procedure: Male rats (150-200 g) were starved overnight and twelve hours after dorsal depilation, the animals were dosed orally with the test compound(s). Four dorsal test areas were marked with permanent ink. Exactly 60 min after the dosing of the test compound, two intradermal injections of histamine (50 microliter; 1.0 mg/ml of histamine di-HCl) were performed, one on each side on the back of the animal. Two intradermal injections of the vehicle for the histamine solution were also performed. Evans blue dye (20 mg/kg) was injected iv 1 minute prior to the intra-dermal injections of histamine and the histamine vehicle. Twenty minutes were allowed for the wheal response to fully develop, whereupon the animals were euthanized and the dorsal skin containing the intradermal wheals was deflected. The blue spotted areas were measured in square millimeters and the duplicate vehicle wheal responses were averaged. […] The inhibition was calculated in percent difference from the corresponding vehicle baseline value.

A further series concerns rabbit eyes. Description: Ocular irritation test. In kind it is in vivo, New Zealand White rabbits. As to conditions: excipient-free solution 0.0345% in water or saline; rabbit eye, seven instillations of 0.1 ml. On the procedure: New Zealand White rabbits, weighing 2 to 4 kilograms were used. Test formulation, in volumes of 0.1 ml were instilled into the conjunctival sac of six rabbit eyes of groups. Said volume of each formulation was repeatedly instilled every 30 minutes for 3 hours (a total of seven instillation into the eyes of rabbits. Ocular irritation was scored according to both Draize et al., 1944 and Kay and Calandra, 1962. Scorings were performed before each instillation and 30 minutes, 3 hours and 24 hours after the last instillation.
The formulations of norketotifen in Table 7 were prepared and tested and the results were compared with irritation by norketotifen in excipient-free solutions. […] In the present study, norketotifen HF was dissolved to an intended concentration of 0.276 percent in the various solutions, using stirring and over-night sonication at room temperature. After sonication, all solutions were filtered through a 0.45 μm non-pyrogenic MILLEX® HV filter unit before being used for ocular tests. Thus, all of the solutions used for the ocular irritation tests in Table 7 contained the highest possible concentrations of norketotifen HF.
Solutions of norketotifen were similarly prepared in excipient-free solutions containing only norketotifen HF 0.0345 percent by weight, dissolved in water or in saline, and filtered as described above. […]

The mark [4] stands for this setting: water, read-out: water solubility.

The structures appear in SMILES notation. In brackets after ≈: the same amount, converted by molar mass. Read-outs that look alike come from different tables or passages of the source.

T1 sequence (P31390 whole entry): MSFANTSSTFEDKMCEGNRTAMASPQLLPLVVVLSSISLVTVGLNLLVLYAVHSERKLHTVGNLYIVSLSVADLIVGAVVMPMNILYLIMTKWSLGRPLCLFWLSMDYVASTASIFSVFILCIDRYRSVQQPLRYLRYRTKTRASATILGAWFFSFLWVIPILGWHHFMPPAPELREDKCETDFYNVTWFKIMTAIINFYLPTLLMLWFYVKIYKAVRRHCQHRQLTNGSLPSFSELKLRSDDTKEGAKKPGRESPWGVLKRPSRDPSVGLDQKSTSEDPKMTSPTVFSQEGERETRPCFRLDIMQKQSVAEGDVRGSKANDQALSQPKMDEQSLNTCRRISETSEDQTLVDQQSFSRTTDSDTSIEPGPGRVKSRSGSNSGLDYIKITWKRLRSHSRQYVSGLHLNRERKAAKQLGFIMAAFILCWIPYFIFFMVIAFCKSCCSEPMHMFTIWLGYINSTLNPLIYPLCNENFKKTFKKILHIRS

Consider `CN1CCC(=C2c3ccccc3CC(=O)c3sccc32)CC1` [ketotifen], for which the solubility (in general, how much of the substance goes into solution per volume) in series [1] (setting [4]) is roughly 12500 µg/mL (≈ 40.4 mM). For the same compound, it took 91 µM to reach half-maximal inhibition in series [2] (IC50).
For `O=C1Cc2ccccc2C(=C2CCNCC2)c2ccsc21` [norketotifen FB], in series [1] (propylene glycol, glycerin, ethanol and isopropyl alcohol), the “solubility of free base in non-aqueous solvents” value is “can be dissolved”.
Consider `O=C1Cc2ccccc2C(=C2CCNCC2)c2ccsc21` [norketotifen], for which, in series [3], the “stability in solution formulations” value is on record as “not stable”. Also, in series [1] (PEG 300), the “soluble in polyethylene glycol (PEG 300)” value is on record as “up to 0.15 percent w/w”. In addition, the solubility in series [1] (pH 8.6, aqueous buffer, read-out: solubility of norketotifen in water) worked out at 2100 µg/mL (≈ 7.11 mM). For the same compound, the solubility in series [1] (pH 8.75, aqueous buffer, read-out: solubility of norketotifen in water) was roughly 1000 µg/mL (≈ 3.39 mM). Also, the “soluble in propylene glycol” value in series [1] (propylene glycol) is given as “up to 1.0 percent by weight”. Moreover, the solubility in series [1] (propylene glycol, organic solvent or mixture, read-out: solubility of norketotifen in propylene glycol) is roughly 10000 µg/mL (≈ 33.9 mM). In series [1] (water), the “can be dissolved in water” value is listed as “up to 0.216 percent by weight”. Moreover, in series [1] (setting [4]), the solubility was roughly 2160 µg/mL (≈ 7.31 mM). Further, at H-1 (rat, po), the inhibition (in general, the percentage by which the read-out fell short of the control) at 1 mg/kg came to 6%; the inhibition at 10 mg/kg amounted to 83%; the inhibition at 50 mg/kg came to 100%. On H-1 (rats, oral), the “absorption after oral administration” value was “well absorbed” and the “antihistaminic potency relative to diphenhydramine” value is “more potent than the reference compound”. For the same compound, on H-1 (rats, oral, 1 mg/kg), the Histamine effect came to 92 mm^2, the “Histamine (wheal area)” value amounted to 114 ± 8 mm^2 and the “Saline (wheal area)” value was found to be 22 ± 1 mm^2. Also, on H-1 (rats, oral, 10 mg/kg), the Histamine effect was 17 mm^2, the “Histamine (wheal area)” value was 39 ± 2 mm^2 and the “Saline (wheal area)” value came to 22 ± 1 mm^2. For the same compound, on H-1 (rats, oral, 50 mg/kg), the Histamine effect amounted to 0 mm^2, the “Histamine (wheal area)” value is recorded as 10 ± 1 mm^2 and the “Saline (wheal area)” value was determined as 12 ± 1 mm^2. Moreover, on H-1 (tested in vivo (Example 12)), the “antihistaminic activity relative to ketotifen” value was “about half of that of ketotifen”. For the same compound, in series [2], the IC50 (as a rule, the concentration that inhibits the measured activity by half) is 9.2 µM. Moreover, in series [2] (A23187-induced), the “activity relative to ketotifen in inhibiting granulocyte activation (anti-inflammatory)” value is on record as “about ten times more potent than ketotifen”. Also, the “ocular irritation (Draize; Kay and Calandra scoring)” value in the series with rabbit eyes is recorded as “caused irritation”.

For the origin of these results see patent publication US8765787B2, “Methods of treatment of xerophthalmia with self-preserving ocular formulations of norketotifen” (Bridge Pharma, Inc., priority 2008, dated 2014).
